Results reported in publication PMC11240926, “Integrating In Silico and In Vitro Approaches to Identify Natural Peptides with Selective Cytotoxicity against Cancer Cells” (International Journal of Molecular Sciences, 2024).
Ends that are not written are not given here. Peptide text beside a SMILES is read from it.

How the values were obtained:
cancer cell lines = test: MTT colorimetric assay, panel of over 30 cancer cell lines; format: cell-based, human; details: 48 h
Protocol: (§1) The culture medium used for the cancer cell lines included 10% fetal bovine serum (Gibco, Grand Island, NY, USA) and 1% penicillin/streptomycin (Gibco) in 5% CO2 at 37 °C. Cells were seeded into 96-well tissue culture plates at a concentration of 1 × 10^4 cells per 200 μL per well and allowed to settle overnight. The cells were then treated with serial dilutions of various ACPs. After 48 h of incubation, cell viability for each line was assessed using the MTT colorimetric assay (Sigma-Aldrich, St. Louis, MO, USA). The peptide preparation and dilution in our anticancer assays are as follows: ACPs (10 mg) were dissolved in 100 μL of DMSO to generate 100 mg/mL stock solutions. These stock solutions were then diluted 100 times with a culture medium to obtain a 1 mg/mL solution. Finally, serial dilutions were prepared in a culture medium containing 1% DMSO to achieve the desired ACP concentrations for the MTT assay.

BT474 cells = format: cell-based, human; details: MTT, 48 h
Protocol: as §1

Hs578T = format: cell-based, human; details: Breast, MTT assay
Source text: Supplement ijms-25-06848-s001.zip/IJMS_Supplementary Table S2.xlsx, sheet "Table S2" | column: ACP1; ACP2; ACP3; ACP4; ACP5; ACP6; ACP7; ACP8; ACP9; ACP10; ACP11; ACP12

DBTRG brain tumor cells = format: cell-based; details: human
Protocol: as §1

A431 = format: cell-based, human; details: Skin, MTT assay
Protocol: as §1

A549 = format: cell-based, human; details: Lung, MTT assay
Protocol: as §1

[1] = system: Burkitt lymphoma-derived Daudi cell line; format: cell-based, human; details: MTT, 48 h
Protocol: as §1

[2] = system: triple-negative breast cancer cell line MDA-MB-231; format: cell-based, human; details: MDA-MB-231, MTT, 48 h
Protocol: as §1

Mahlavu = format: cell-based, human; details: Mahlavu liver cancer cells, MTT, 48 h
Protocol: as §1

HepG2 = format: cell-based, human; details: HepG2 liver cancer cells, MTT, 48 h
Protocol: as §1

DU145 prostate cancer = format: cell-based, human; details: MTT, 48 h
Protocol: as §1

SKOV-3 ovarian carcinoma = format: cell-based, human; details: MTT, 48 h
Protocol: as §1

HT1080 fibrosarcoma = format: cell-based, human; details: MTT, 48 h
Protocol: as §1

[3] = endometrial and hypopharyngeal cancer cells

CC[C@H](C)[C@H](NC(=O)[C@H](CS)NC(=O)[C@@H]1CCCN1C(=O)[C@@H](NC(=O)[C@H](Cc1ccccc1)NC(=O)[C@@H](NC(=O)[C@H](CS)NC(=O)[C@H](CO)NC(=O)[C@H](CCC(=O)O)NC(=O)CNC(=O)[C@H](CS)NC(=O)[C@@H]1CCCN1C(=O)[C@@H](NC(=O)[C@@H](NC(=O)CN)C(C)C)[C@@H](C)CC)C(C)C)[C@@H](C)CC)C(=O)N[C@@H](CO)C(=O)N[C@H](C(=O)N[C@@H](CC(C)C)C(=O)N[C@@H](CC(C)C)C(=O)NCC(=O)N[C@@H](CS)C(=O)N[C@@H](CO)C(=O)N[C@@H](CS)C(=O)N[C@@H](CCCCN)C(=O)N[C@@H](CC(N)=O)C(=O)N[C@@H](CCCCN)C(=O)N[C@H](C(=O)N[C@@H](CS)C(=O)N[C@@H](Cc1ccc(O)cc1)C(=O)N[C@@H](CCCNC(=N)N)C(=O)N[C@@H](CC(N)=O)C(=O)O)C(C)C)[C@@H](C)O [ACP6] (H-GVIPCGESCVFIPCISTLLGCSCKNKVCYRN-OH)
anticancer effects, in words (cancer cell lines; [3]): affected | anticancer effects, in words (cancer cell lines; liver and breast cancers): notable anticancer effects

CC[C@H](C)[C@H](NC(=O)[C@@H]1CCCN1C(=O)[C@H](Cc1c[nH]c2ccccc12)NC(=O)[C@H](CO)NC(=O)[C@H](CS)NC(=O)[C@H](CO)NC(=O)[C@H](CS)NC(=O)CNC(=O)[C@@H]1CCCN1C(=O)[C@@H](NC(=O)[C@H](CC(N)=O)NC(=O)[C@H](CS)NC(=O)[C@@H](NC(=O)CNC(=O)CNC(=O)[C@H](Cc1ccccc1)NC(=O)[C@H](CS)NC(=O)[C@@H](NC(=O)[C@H](CCC(=O)O)NC(=O)CNC(=O)[C@H](CS)NC(=O)[C@@H](NC(=O)[C@@H](NC(=O)[C@@H]1CCCN1C(=O)[C@@H](NC(=O)[C@@H](NC(=O)[C@@H](N)CO)C(C)C)[C@@H](C)O)[C@@H](C)CC)C(C)C)[C@@H](C)O)[C@@H](C)O)[C@@H](C)O)C(=O)N[C@@H](CS)C(=O)N[C@H](C(=O)N[C@@H](CCCCN)C(=O)O)[C@@H](C)O [ACP10] (H-SVTPIVCGETCFGGTCNTPGCSCSWPICTK-OH; N-terminus and C-terminus assumed)
cytotoxicity, in words (BT474 cells): pronounced cytotoxicity

EQQQQQQPQNRRFRE [ACP11]
Cytotoxicity against cancer cell line Hs578T (Hs578T): >1000 | IC50 (DBTRG brain tumor cells): 32.1 µM | Cytotoxicity against cancer cell line A431 (A431): >1000 | Cytotoxicity against cancer cell line A549 (A549): >1000

FKGGGPYGQGVTRGQDLSGKDF [ACP12]
anticancer activity, in words [1]: demonstrated anticancer activity | anticancer activity, in words [2]: demonstrated anticancer activity | Cytotoxicity against cancer cell line A549 (A549): >1000

GLLGVLGSVAKHVLPHVVPVIAEHL [ACP9]
cytotoxicity, in words (Mahlavu): particularly effective | cytotoxicity, in words (HepG2): particularly effective

KSCCPNTTGRNIYNTCRFGGGSREVCASLSGCKIISASTCPSYPDK (cysteines drawn unpaired) [ACP7]
anticancer effects, in words (cancer cell lines; [3]): affected | anticancer effects, in words (cancer cell lines; liver and breast cancers): notable anticancer effects

YKQCHKKGGHCFPKEKICIPPSSDFGKMDCRWRWKCCKKGSG (cysteines drawn unpaired) [ACP8]
selective cytotoxicity, in words (DU145 prostate cancer): selectively targeting | selective cytotoxicity, in words (SKOV-3 ovarian carcinoma): selectively targeting | selective cytotoxicity, in words (HT1080 fibrosarcoma): selectively targeting
